Measurements published in US20060134102A1, “Lymphotoxin beta receptor agents in combination with chemotherapeutic agents” (Biogen Idec MA Inc., priority 2002, published 2006).
Several values for one entry are separate records, joined by “and”; a condition that tells them apart may be missing. Equal values may be shown once.

Test system: WiDr human colorectal adenocarcinoma
Assay: WiDr xenograft model: growth of established WiDr human colorectal tumors in athymic nude mice (tumor volume/weight, % T/C, Fa, Combination Index)
Settings: for Volume Decrease: vs control; for Fractional Inhibition of Tumor Volume (Fa), Ave. / Tumor Volume, Ave.: group average
[1] = Day 34, individual animals, hCBE 50
[2] = Day 34, individual animals, hCBE 500
[3] = hCBE 50 μg, day 28, one line per animal
[4] = hCBE 100 μg, day 28, one line per animal
[5] = huCBE11 50 μg, day 21, listed as hCBE
[6] = Gem 12.5 mg/kg, day 28, one line per animal, listed as Gem
[7] = Gem 25 mg/kg, day 28, one line per animal, listed as Gem
[8] = Gem 50 mg/kg, day 28, one line per animal, listed as Gem

Procedure: Therapeutic agents, i.e. LTβR agonist and chemotherapeutic agents, were administered to athymic nude mice who had been implanted with WiDr tumor cells.
WiDr cells were obtained from the American Type Culture Collection (Manassas, Va.). Cells were grown in vitro in 90% Eagle's Minimum Essential Medium with 2 mM L-glutamine and Earle's Balanced Salt Solution (BSS) adjusted to contain 1.5 g/L sodium bicarbonate, 0.1 mM non-essential amino acids, and 1 mM sodium pyruvate plus 10% fetal bovine serum (FBS) without antibiotics (5% CO2). Bacterial cultures were performed on aliquots of the tumor homogenate preparation that was implanted into the mice to ensure that all cultures were negative for bacterial contamination at both 24 and 48 hours post implant.
When the tumors measured approximately 5 mm in length by 5 mm in width, mice were randomized to treatment and control groups. Body weight measurements were recorded twice-weekly beginning on Day 0.
Tumor measurements were determined using Vernier calipers. Tumor size measurements were recorded regularly according to the study, until the termination of the study. The formula to calculate volume for a prolate ellipsoid was used to estimate tumor volume (mm^3) from 2-dimensional tumor measurements: tumor volume (mm^3)=(length×width^2 [L×W^2])÷2. Assuming unit density, volume was converted to weight (i.e., 1 mm^3=1 mg). Tumor growth inhibition was assessed as % T/C, where T is the mean tumor weight of the treatment group and C is the mean tumor weight of the control group. […] Animals were sacrificed accordingly.
Statistical analysis of the tumor weight measurements was performed according to standard statistical methods. Mean, standard deviation (SD), and standard error of the mean (SEM) were determined for body weight and tumor weight for all dose groups at all assessments.
Antitumor efficacy was determined by comparing each treatment group's tumor volume with the control group's tumor volume. Mean tumor volume decrease was calculated as the difference between the control group and the treatment group mean tumor volume. The fractional inhibition of tumor volume, i.e., the fraction affected (Fa), was calculated by dividing the treatment group mean tumor volume decrease by the control group mean tumor volume. […] Further statistical analysis was performed accordingly.

With “huCBE11: humanized anti-LT-β-R agonist antibody (LTβ receptor-activating mAb), described in WO 02/30986” the “Fa (Fraction Affected)” value (Day 34, huCBE11 5 ug) was 0.256, the “Tumor Volume” value (Day 34, huCBE11 5 ug) was 1024.0 and the “Volume Decrease” value (Day 34, huCBE11 5 ug) was 352.4. For the same compound, the “Fa (Fraction Affected)” value (Day 34, huCBE11 50 ug) was 0.361, the “Tumor Volume” value (Day 34, huCBE11 50 ug) was 880.1 and the “Volume Decrease” value (Day 34, huCBE11 50 ug) was 496.3. The “Fa (Fraction Affected)” value (Day 34, huCBE11 500 ug) was 0.466, the “Tumor Volume” value (Day 34, huCBE11 500 ug) was 735.6 and the “Volume Decrease” value (Day 34, huCBE11 500 ug) was 640.8. The “Median Effect Dose” value (Day 34, huCBE11 Given Separately) was 932.9 µg, the “Median Effect Dose” value (Day 34, huCBE11 dose, Combined (0.333:1) with Taxol) was 19.8 µg and the “Individual Fractional Inhibition of Tumor Volume” value [1] was 0.039 and 0.536 and 0.420 and 0.452 and 0.391 and 0.290 and 0.423 and 0.674 and −0.234 and 0.614. For the same compound, the “Individual Tumor Volumes” value [1] was 1322.2 and 638.5 and 798.8 and 754.3 and 838.2 and 976.8 and 794.0 and 448.6 and 1698.4 and 531.6, the “Individual Fractional Inhibition of Tumor Volume” value [2] was 0.174 and 0.360 and 0.502 and 0.529 and 0.688 and 0.717 and 0.395 and 0.607 and 0.230 and 0.454 and the “Individual Tumor Volumes” value [2] was 1136.7 and 881.2 and 685.7 and 648.1 and 430.1 and 389.8 and 832.1 and 541.3 and 1059.8 and 751.2. For the same compound, the “Tumor weight vs vehicle control” value (all huCBE11 groups (500, 100, 50 μg), day 42) was “statistically significantly lower”, the “Fractional Inhibition of Tumor Volume (Fa), Ave.” value (from here on “Fractional Inhibition … Ave.”) (hCBE 50 μg, day 28) was 0.442 and the “Tumor Volume, Ave.” value (hCBE 50 μg, day 28) was 448.0. For the same compound, the “Individual Fractional Inhibition of Tumor Volume (Fa)” value [3] was 0.467 and 0.547 and 0.564 and 0.463 and 0.456 and 0.350 and −0.060 and 0.245 and 0.827 and 0.562, the “Individual Tumor Volumes” value [3] was 428.2 and 363.5 and 350.4 and 431.3 and 437.1 and 521.8 and 851.1 and 606.1 and 138.7 and 352.2 and the “Fractional Inhibition … Ave.” value (hCBE 100 μg, day 28) was 0.519. The “Tumor Volume, Ave.” value (hCBE 100 μg, day 28) was 386.1, the “Individual Fractional Inhibition of Tumor Volume (Fa)” value [4] was 0.754 and −0.210 and 0.441 and 0.590 and 0.596 and 0.449 and 0.682 and 0.556 and 0.723 and 0.614 and the “Individual Tumor Volumes” value [4] was 197.9 and 972.2 and 449.1 and 329.2 and 324.7 and 442.5 and 255.6 and 356.8 and 222.4 and 310.4. For the same compound, the “Fa (Fraction Affected), group mean” value (huCBE11 5 μg, day 21) was 0.265, the “Tumor Volume, group mean” value (huCBE11 5 μg, day 21) was 319.0 and the “Volume Decrease vs control, group mean” value (huCBE11 5 μg, day 21) was 115.0. The Fa (huCBE11 5 μg, day 28) was 0.143, the “Tumor Volume” value (huCBE11 5 μg, day 28) was 688.4 and the “Volume Decrease” value (huCBE11 5 μg, day 28) was 114.8. The “Inhibition of tumor growth” value (huCBE11 5 μg, gemcitabine parallel study) was “did not significantly inhibit tumor growth”, the “Fraction Affected” value (huCBE11 50 μg given separately, day 28) was 0.442 and the “% T/C” value (huCBE11 50 μg, Day 41) was 43.5%. For the same compound, the “Fa (Fraction Affected), group mean” value (huCBE11 50 μg, day 21) was 0.383, the “Tumor Volume, group mean” value (huCBE11 50 μg, day 21) was 267.8 and the “Volume Decrease vs control, group mean” value (huCBE11 50 μg, day 21) was 166.2. The “Fa, individual animals” value [5] was 0.607 and 0.437 and 0.466 and 0.590 and 0.298 and 0.605 and 0.179 and −0.015 and 0.415 and 0.247, the “Tumor volume, individual animals” value [5] was 170.5 and 244.3 and 231.8 and 178.1 and 304.5 and 171.3 and 356.5 and 440.3 and 254.0 and 326.6 and the “Tumor Volume” value (huCBE11 50 μg, day 28) was 448.0. The “Volume Decrease” value (huCBE11 50 μg, day 28) was 355.2, the “Fa (fractional inhibition of tumor volume), group mean” value (huCBE11 50 μg, day 35) was 0.437 and the “Fa, individual animals” value (huCBE11 50 μg, day 35) was 0.723 and 0.666 and 0.660 and 0.636 and 0.318 and −0.502 and 0.321 and 0.473 and 0.743 and 0.329. For the same compound, the “Tumor Volume, group mean” value (huCBE11 50 μg, day 35) was 633.2, the “Tumor volume, individual animals” value (huCBE11 50 μg, day 35) was 311.9 and 375.4 and 381.9 and 409.6 and 766.4 and 1688.6 and 762.8 and 592.2 and 289.2 and 754.4 and the “Volume Decrease vs control, group mean” value (huCBE11 50 μg, day 35) was 490.8. For the same compound, the “Fa (fractional inhibition of tumor volume), group mean” value (huCBE11 50 μg, day 44) was 0.387, the “Fa, individual animals” value (huCBE11 50 μg, day 44) was 0.656 and 0.434 and 0.559 and 0.498 and 0.143 and 0.591 and −0.316 and 0.381 and 0.406 and 0.516 and the “Tumor Volume, group mean” value (huCBE11 50 μg, day 44) was 869.7. The “Tumor volume, individual animals” value (huCBE11 50 μg, day 44) was 487.5 and 802.7 and 624.9 and 712.0 and 1216.2 and 580.7 and 1866.3 and 878.7 and 842.6 and 686.0, the “Volume Decrease vs control, group mean” value (huCBE11 50 μg, day 44) was 548.9 and the “Fraction Affected” value (huCBE11 100 μg given separately, day 28) was 0.519. The “% T/C” value (huCBE11 100 μg, Day 41) was 40.0%, the “Tumor Volume” value (huCBE11 100 μg, day 28) was 386.1 and the “Volume Decrease” value (huCBE11 100 μg, day 28) was 417.1. For the same compound, the “Fa (fractional inhibition of tumor volume), group mean” value (huCBE11 100 μg, day 35) was 0.645, the “Fa, individual animals” value (huCBE11 100 μg, day 35) was 0.762 and 0.814 and 0.781 and 0.739 and 0.750 and 0.344 and 0.593 and 0.696 and 0.119 and 0.848 and the “Tumor Volume, group mean” value (huCBE11 100 μg, day 35) was 399.5. The “Tumor volume, individual animals” value (huCBE11 100 μg, day 35) was 267.9 and 208.9 and 245.8 and 293.4 and 281.4 and 737.5 and 457.4 and 341.5 and 990.1 and 171.4, the “Volume Decrease vs control, group mean” value (huCBE11 100 μg, day 35) was 724.5 and the “Activity by NCI criteria (% T/C of 42 or less)” value (shortened to “Activity … (% T/C of 42 or less)”) (huCBE11 100 μg, gemcitabine parallel study) was “active”. The “% T/C” value (huCBE11 500 μg and 50 μg groups, days 35 or 38 to 42) was less than 42%, the “% T/C” value (huCBE11 500 μg and 100 μg groups, days 32 to 42) was less than 42% and the “Activity by NCI criteria” value (huCBE11 500 μg, 100 μg, 50 μg, adriamycin parallel study) was “active”. The “% T/C” value (huCBE11 500 μg, Days 31 to 45) was “below 42%”, the “Fa (Fraction Affected), group mean” value (huCBE11 500 μg, day 21) was 0.418 and the “Tumor Volume, group mean” value (huCBE11 500 μg, day 21) was 252.5. The “Volume Decrease vs control, group mean” value (huCBE11 500 μg, day 21) was 181.5, the “Fa (fractional inhibition of tumor volume), group mean” value (huCBE11 500 μg, day 35) was 0.648 and the “Fa, individual animals” value (huCBE11 500 μg, day 35) was 1.000 and 0.750 and 0.305 and 0.758 and 0.522 and 0.756 and 0.672 and 0.670 and 0.307 and 0.736. For the same compound, the “Tumor Volume, group mean” value (huCBE11 500 μg, day 35) was 396.0, the “Tumor volume, individual animals” value (huCBE11 500 μg, day 35) was 0.1 and 280.9 and 781.0 and 272.3 and 537.5 and 273.7 and 368.7 and 370.6 and 778.7 and 296.8 and the “Volume Decrease vs control, group mean” value (huCBE11 500 μg, day 35) was 728.0. The “Fa (fractional inhibition of tumor volume), group mean” value (huCBE11 500 μg, day 44) was 0.567, the “Fa, individual animals” value (huCBE11 500 μg, day 44) was 0.930 and 0.334 and 0.624 and 0.765 and 0.669 and 0.538 and 0.285 and 0.489 and 0.488 and 0.545 and the “Tumor Volume, group mean” value (huCBE11 500 μg, day 44) was 614.7. For the same compound, the “Tumor volume, individual animals” value (huCBE11 500 μg, day 44) was 99.1 and 944.8 and 534.1 and 333.2 and 469.4 and 655.8 and 1014.0 and 725.3 and 726.2 and 645.6, the “Volume Decrease vs control, group mean” value (huCBE11 500 μg, day 44) was 803.9 and the “Activity … (% T/C of 42 or less)” value (huCBE11, Camptosar parallel study) was “active”. The “Median Effect Dose” value (huCBE11 combined with Camptosar (0.555:1), day 21) was 10.2 µg, the “Median Effect Dose” value (huCBE11 combined with Gemcitabine (0.568:1), day 28) was 7.3 µg and the “Median Effect Dose” value (huCBE11 given separately, day 21) was 2933 µg. For the same compound, the “Median Effect Dose” value (huCBE11 given separately, day 28) was 81.1 µg.
With Nc1ccn([C@@H]2O[C@H](CO)[C@@H](O)C2(F)F)c(=O)n1 [Gemcitabine, gemcitabine, reference compound] the “Fractional Inhibition … Ave.” value (Gem 12.5 mg/kg, day 28) was 0.403, the “Tumor Volume, Ave.” value (Gem 12.5 mg/kg, day 28) was 479.5 and the “Individual Fractional Inhibition of Tumor Volume (Fa)” value [6] was 0.571 and 0.001 and 0.524 and 0.490 and 0.427 and 0.479 and 0.421 and 0.632 and −0.058 and 0.543. For the same compound, the “Individual Tumor Volumes” value [6] was 344.8 and 802.2 and 382.6 and 409.5 and 459.9 and 418.6 and 465.3 and 295.5 and 849.7 and 367.1, the “Fractional Inhibition … Ave.” value (Gem 25 mg/kg, day 28) was 0.603 and the “Tumor Volume, Ave.” value (Gem 25 mg/kg, day 28) was 319.0. The “Individual Fractional Inhibition of Tumor Volume (Fa)” value [7] was 0.678 and 0.561 and 0.657 and 0.440 and 0.505 and 0.574 and 0.712 and 0.703 and 0.559 and 0.641, the “Individual Tumor Volumes” value [7] was 258.5 and 352.8 and 275.7 and 450.0 and 397.8 and 342.6 and 230.9 and 238.8 and 354.3 and 288.2 and the “Fractional Inhibition … Ave.” value (Gem 50 mg/kg, day 28) was 0.594. The “Tumor Volume, Ave.” value (Gem 50 mg/kg, day 28) was 326.0, the “Individual Fractional Inhibition of Tumor Volume (Fa)” value [8] was 0.602 and 0.812 and 0.747 and 0.502 and 0.445 and 0.538 and 0.447 and 0.774 and 0.659 and 0.417 and the “Individual Tumor Volumes” value [8] was 319.6 and 151.2 and 203.1 and 400.1 and 446.1 and 370.9 and 444.1 and 181.8 and 274.1 and 468.6. For the same compound, the “Fraction Affected” value (Gemcitabine 12.5 mg/kg given separately, day 28) was 0.403, the “Tumor Volume” value (Gemcitabine 12.5 mg/kg, day 28) was 479.5 and the “Volume Decrease” value (Gemcitabine 12.5 mg/kg, day 28) was 323.7. For the same compound, the “Fraction Affected” value (Gemcitabine 25 mg/kg given separately, day 28) was 0.603, the “Tumor Volume” value (Gemcitabine 25 mg/kg, day 28) was 318.9 and the “Volume Decrease” value (Gemcitabine 25 mg/kg, day 28) was 484.3. The “Tumor Volume” value (Gemcitabine 50 mg/kg, day 28) was 326.0, the “Volume Decrease” value (Gemcitabine 50 mg/kg, day 28) was 477.2 and the “Median Effect Dose” value (Gemcitabine combined with huCBE11 (0.568:1), day 28) was 4.2 mg/kg. The “Median Effect Dose” value (Gemcitabine given separately, day 28) was 16.7 mg/kg, the “Inhibition of tumor growth vs vehicle control” value (gemcitabine 12.5 mg/kg, Day 41, separate study) was “No significant inhibition” and the “% T/C” value (gemcitabine 25 mg/kg, Days 21 and 28) was “below 42%”. The “Activity … (% T/C of 42 or less)” value (gemcitabine 50 mg/kg to […], Day 41) was “inactive” and the “% T/C” value (gemcitabine 50 mg/kg, Days 17 to 28) was “below 42%”.
